Assays:
[1] = tested on: single-stranded RNA (5′-r(agcaaaaaacgc)-3′; SEQ ID NO: 7) (a sense strand); test: Measurement of melting temperatures (Tm) of oligonucleotides, double strand forming capability with single-stranded RNA; format: binding; conditions: antisense 5′-d(gcgnnnnnngct)-3′ (SEQ ID NO: 4); 100 mM NaCl, 10 mM sodium phosphate buffer pH 7.2, 4 μM each strand
[2] = tested on: single-stranded DNA (5′-d(agcaaaaaacgc)-3′; SEQ ID NO: 6) (a sense strand); test: Measurement of melting temperatures (Tm) of oligonucleotides, double strand forming capability with single-stranded DNA; format: binding; conditions: antisense 5′-d(gcgnnnnnngct)-3′ (SEQ ID NO: 4); 100 mM NaCl, 10 mM sodium phosphate buffer pH 7.2, 4 μM each strand

Substance | Tm value (target: ssRNA) [1] [°C] | Tm value (target: ssDNA) [2] [°C]
(R)EDM-T: SEQ ID NO: 4, n = formula (6) unit: thymin-1-yl, n 1, R^3 3-(N,N-dimethylamino)propyl, R^4 (R)-ethyl, R^5 H (DNA AGCAAAAAACG; n (R)EDM-T modified units, chemistry not fully specified; the letters are possibly those of the target site) | 89 | 77
DNA-T: 5′-d(gcgnnnnnngct)-3′ (SEQ ID NO: 4), n = formula (7) unit, Base thymin-1-yl, R^a H (natural DNA T) (DNA AGCAAAAAACGC; n natural T, chemistry not fully specified; the letters are possibly those of the target site) | 48 | 52
